Data from the NIST ThermoML archive (doi:10.1016/j.jct.2015.01.004).
Where “and” joins values, the source holds several entries; their conditions need not be identical. Identical values can stand only once.

Test: molar heat capacity at constant pressure; xn = mol fraction of the nth substance listed
Conditions: 100 kPa

[Si] [silicon] + [Li]
Conditions	molar heat capacity at constant pressure
298.15 K, Crystal of intercomponent compound 2, relaxation calorimetry + DSC, x2 = 0.804	22.75 J/K/mol
298.32 K, Crystal of intercomponent compound 1, relaxation calorimetry, x2 = 0.81	21.66 J/K/mol
298.33 K, Crystal of intercomponent compound 2, relaxation calorimeter, x2 = 0.804	22.58 J/K/mol
300 K, Crystal of intercomponent compound 1, relaxation calorimetry + DSC, x2 = 0.81	22.58 J/K/mol
300 K, Crystal of intercomponent compound 2, relaxation calorimetry + DSC, x2 = 0.804	22.79 J/K/mol
302.31 K, Crystal of intercomponent compound 1, relaxation calorimetry, x2 = 0.81	21.75 J/K/mol
302.34 K, Crystal of intercomponent compound 2, relaxation calorimeter, x2 = 0.804	22.69 J/K/mol
304.67 K, Crystal of intercomponent compound 2, Small sample (50 mg) DSC, x2 = 0.804	23.11 J/K/mol and 23.16 J/K/mol
304.7 K, Crystal of intercomponent compound 1, Small sample (50 mg) DSC, x2 = 0.81	22.87 J/K/mol and 22.84 J/K/mol
304.7 K, Crystal of intercomponent compound 2, Small sample (50 mg) DSC, x2 = 0.804	23.05 J/K/mol
304.87 K, Crystal of intercomponent compound 1, Small sample (50 mg) DSC, x2 = 0.81	22.81 J/K/mol
304.88 K, Crystal of intercomponent compound 1, Small sample (50 mg) DSC, x2 = 0.81	22.77 J/K/mol
314.59 K, Crystal of intercomponent compound 2, Small sample (50 mg) DSC, x2 = 0.804	23.41 J/K/mol and 23.55 J/K/mol
314.61 K, Crystal of intercomponent compound 1, Small sample (50 mg) DSC, x2 = 0.81	23.01 J/K/mol and 23.1 J/K/mol
314.61 K, Crystal of intercomponent compound 2, Small sample (50 mg) DSC, x2 = 0.804	23.42 J/K/mol
314.8 K, Crystal of intercomponent compound 1, Small sample (50 mg) DSC, x2 = 0.81	22.99 J/K/mol
314.81 K, Crystal of intercomponent compound 1, Small sample (50 mg) DSC, x2 = 0.81	22.91 J/K/mol
320 K, Crystal of intercomponent compound 1, relaxation calorimetry + DSC, x2 = 0.81	23.07 J/K/mol
320 K, Crystal of intercomponent compound 2, relaxation calorimetry + DSC, x2 = 0.804	23.22 J/K/mol
324.51 K, Crystal of intercomponent compound 2, Small sample (50 mg) DSC, x2 = 0.804	23.8 J/K/mol and 23.85 J/K/mol
324.52 K, Crystal of intercomponent compound 1, Small sample (50 mg) DSC, x2 = 0.81	23.19 J/K/mol and 23.22 J/K/mol
324.52 K, Crystal of intercomponent compound 2, Small sample (50 mg) DSC, x2 = 0.804	23.8 J/K/mol
324.71 K, Crystal of intercomponent compound 1, Small sample (50 mg) DSC, x2 = 0.81	23.19 J/K/mol
324.72 K, Crystal of intercomponent compound 1, Small sample (50 mg) DSC, x2 = 0.81	23.11 J/K/mol
334.42 K, Crystal of intercomponent compound 2, Small sample (50 mg) DSC, x2 = 0.804	24.09 J/K/mol and 24.14 J/K/mol
334.43 K, Crystal of intercomponent compound 2, Small sample (50 mg) DSC, x2 = 0.804	24.12 J/K/mol
334.44 K, Crystal of intercomponent compound 1, Small sample (50 mg) DSC, x2 = 0.81	23.32 J/K/mol and 23.34 J/K/mol
334.63 K, Crystal of intercomponent compound 1, Small sample (50 mg) DSC, x2 = 0.81	23.4 J/K/mol
334.64 K, Crystal of intercomponent compound 1, Small sample (50 mg) DSC, x2 = 0.81	23.38 J/K/mol
340 K, Crystal of intercomponent compound 1, relaxation calorimetry + DSC, x2 = 0.81	23.51 J/K/mol
340 K, Crystal of intercomponent compound 2, relaxation calorimetry + DSC, x2 = 0.804	23.65 J/K/mol
344.33 K, Crystal of intercomponent compound 2, Small sample (50 mg) DSC, x2 = 0.804	24.3 J/K/mol and 24.38 J/K/mol
344.35 K, Crystal of intercomponent compound 1, Small sample (50 mg) DSC, x2 = 0.81	23.65 J/K/mol and 23.63 J/K/mol
344.35 K, Crystal of intercomponent compound 2, Small sample (50 mg) DSC, x2 = 0.804	24.37 J/K/mol
344.54 K, Crystal of intercomponent compound 1, Small sample (50 mg) DSC, x2 = 0.81	23.6 J/K/mol
344.55 K, Crystal of intercomponent compound 1, Small sample (50 mg) DSC, x2 = 0.81	23.53 J/K/mol
354.24 K, Crystal of intercomponent compound 2, Small sample (50 mg) DSC, x2 = 0.804	24.56 J/K/mol and 24.6 J/K/mol
354.26 K, Crystal of intercomponent compound 1, Small sample (50 mg) DSC, x2 = 0.81	23.98 J/K/mol and 23.97 J/K/mol
354.26 K, Crystal of intercomponent compound 2, Small sample (50 mg) DSC, x2 = 0.804	24.57 J/K/mol
354.45 K, Crystal of intercomponent compound 1, Small sample (50 mg) DSC, x2 = 0.81	23.8 J/K/mol
354.46 K, Crystal of intercomponent compound 1, Small sample (50 mg) DSC, x2 = 0.81	23.72 J/K/mol
360 K, Crystal of intercomponent compound 1, relaxation calorimetry + DSC, x2 = 0.81	23.91 J/K/mol
360 K, Crystal of intercomponent compound 2, relaxation calorimetry + DSC, x2 = 0.804	24.08 J/K/mol
364.16 K, Crystal of intercomponent compound 2, Small sample (50 mg) DSC, x2 = 0.804	24.81 J/K/mol and 24.83 J/K/mol
364.17 K, Crystal of intercomponent compound 1, Small sample (50 mg) DSC, x2 = 0.81	24.15 J/K/mol and 24.13 J/K/mol
364.17 K, Crystal of intercomponent compound 2, Small sample (50 mg) DSC, x2 = 0.804	24.69 J/K/mol
364.36 K, Crystal of intercomponent compound 1, Small sample (50 mg) DSC, x2 = 0.81	24.02 J/K/mol
364.37 K, Crystal of intercomponent compound 1, Small sample (50 mg) DSC, x2 = 0.81	23.91 J/K/mol
374.07 K, Crystal of intercomponent compound 2, Small sample (50 mg) DSC, x2 = 0.804	24.83 J/K/mol and 24.87 J/K/mol and 24.94 J/K/mol
374.08 K, Crystal of intercomponent compound 1, Small sample (50 mg) DSC, x2 = 0.81	24.33 J/K/mol and 24.27 J/K/mol
374.28 K, Crystal of intercomponent compound 1, Small sample (50 mg) DSC, x2 = 0.81	24.24 J/K/mol and 24.13 J/K/mol
380 K, Crystal of intercomponent compound 1, relaxation calorimetry + DSC, x2 = 0.81	24.29 J/K/mol
380 K, Crystal of intercomponent compound 2, relaxation calorimetry + DSC, x2 = 0.804	24.51 J/K/mol
383.99 K, Crystal of intercomponent compound 2, Small sample (50 mg) DSC, x2 = 0.804	25.05 J/K/mol
384.19 K, Crystal of intercomponent compound 1, Small sample (50 mg) DSC, x2 = 0.81	24.35 J/K/mol
384.2 K, Crystal of intercomponent compound 1, Small sample (50 mg) DSC, x2 = 0.81	24.46 J/K/mol
393.9 K, Crystal of intercomponent compound 2, Small sample (50 mg) DSC, x2 = 0.804	25.16 J/K/mol and 25.27 J/K/mol
394.11 K, Crystal of intercomponent compound 1, Small sample (50 mg) DSC, x2 = 0.81	24.46 J/K/mol
394.12 K, Crystal of intercomponent compound 1, Small sample (50 mg) DSC, x2 = 0.81	24.68 J/K/mol
400 K, Crystal of intercomponent compound 1, relaxation calorimetry + DSC, x2 = 0.81	24.63 J/K/mol
400 K, Crystal of intercomponent compound 2, relaxation calorimetry + DSC, x2 = 0.804	24.94 J/K/mol
403.81 K, Crystal of intercomponent compound 2, Small sample (50 mg) DSC, x2 = 0.804	25.3 J/K/mol and 25.35 J/K/mol
404.02 K, Crystal of intercomponent compound 1, Small sample (50 mg) DSC, x2 = 0.81	24.57 J/K/mol
404.03 K, Crystal of intercomponent compound 1, Small sample (50 mg) DSC, x2 = 0.81	25.01 J/K/mol
413.73 K, Crystal of intercomponent compound 2, Small sample (50 mg) DSC, x2 = 0.804	25.46 J/K/mol and 25.49 J/K/mol
413.94 K, Crystal of intercomponent compound 1, Small sample (50 mg) DSC, x2 = 0.81	24.68 J/K/mol and 25.12 J/K/mol
420 K, Crystal of intercomponent compound 1, relaxation calorimetry + DSC, x2 = 0.81	24.96 J/K/mol
420 K, Crystal of intercomponent compound 2, relaxation calorimetry + DSC, x2 = 0.804	25.37 J/K/mol
423.64 K, Crystal of intercomponent compound 2, Small sample (50 mg) DSC, x2 = 0.804	25.57 J/K/mol and 25.65 J/K/mol
423.85 K, Crystal of intercomponent compound 1, Small sample (50 mg) DSC, x2 = 0.81	24.68 J/K/mol
423.86 K, Crystal of intercomponent compound 1, Small sample (50 mg) DSC, x2 = 0.81	25.12 J/K/mol
433.56 K, Crystal of intercomponent compound 2, Small sample (50 mg) DSC, x2 = 0.804	25.68 J/K/mol and 25.75 J/K/mol
433.76 K, Crystal of intercomponent compound 1, Small sample (50 mg) DSC, x2 = 0.81	25.01 J/K/mol
433.77 K, Crystal of intercomponent compound 1, Small sample (50 mg) DSC, x2 = 0.81	25.23 J/K/mol
440 K, Crystal of intercomponent compound 1, relaxation calorimetry + DSC, x2 = 0.81	25.28 J/K/mol
440 K, Crystal of intercomponent compound 2, relaxation calorimetry + DSC, x2 = 0.804	25.8 J/K/mol
443.48 K, Crystal of intercomponent compound 2, Small sample (50 mg) DSC, x2 = 0.804	25.83 J/K/mol and 25.95 J/K/mol
443.67 K, Crystal of intercomponent compound 1, Small sample (50 mg) DSC, x2 = 0.81	25.01 J/K/mol
443.69 K, Crystal of intercomponent compound 1, Small sample (50 mg) DSC, x2 = 0.81	25.56 J/K/mol
453.39 K, Crystal of intercomponent compound 2, Small sample (50 mg) DSC, x2 = 0.804	25.96 J/K/mol and 26.21 J/K/mol
453.59 K, Crystal of intercomponent compound 1, Small sample (50 mg) DSC, x2 = 0.81	25.01 J/K/mol
